Reference: the NIST ThermoML archive (doi:10.1016/j.tca.2013.06.031)

Experiment: mn = molality of the nth substance listed, in mol/kg
Conditions: 101 kPa, Liquid; for viscosity: Capillary tube (Ostwald / Ubbelohde) method; for mass density: Vibrating tube method

CO/N=C(\C(=O)N[C@@H]1C(=O)N2C(C(=O)[O-])=C(CSc3nc(C)c(CC(=O)[O-])s3)CS[C@H]12)c1csc(N)n1.[Na+].[Na+] + O
Conditions | mass density [kg/m3] | viscosity [mPa·s]
278.15 K, m1 = 0.01 | 1002.35 | 1.551
278.15 K, m1 = 0.03 | 1006.68 | 1.609
278.15 K, m1 = 0.05 | 1010.63 | 1.667
278.15 K, m1 = 0.07 | 1014.39 | 1.724
278.15 K, m1 = 0.09 | 1018.03 | 1.783
278.15 K, m1 = 0.11 | 1021.6 | 1.839
278.15 K, m1 = 0.13 | 1025.13 | 1.9
278.15 K, m1 = 0.15 | 1028.54 | 1.962
283.15 K, m1 = 0.01 | 1002.07 | 1.33
283.15 K, m1 = 0.03 | 1006.36 | 1.381
283.15 K, m1 = 0.05 | 1010.27 | 1.431
283.15 K, m1 = 0.07 | 1014 | 1.479
283.15 K, m1 = 0.09 | 1017.61 | 1.529
283.15 K, m1 = 0.11 | 1021.14 | 1.577
283.15 K, m1 = 0.13 | 1024.59 | 1.63
283.15 K, m1 = 0.15 | 1027.97 | 1.682
288.15 K, m1 = 0.01 | 1001.45 | 1.153
288.15 K, m1 = 0.03 | 1005.68 | 1.197
288.15 K, m1 = 0.05 | 1009.58 | 1.24
288.15 K, m1 = 0.07 | 1013.27 | 1.282
288.15 K, m1 = 0.09 | 1016.85 | 1.326
288.15 K, m1 = 0.11 | 1020.33 | 1.367
288.15 K, m1 = 0.13 | 1023.74 | 1.413
288.15 K, m1 = 0.15 | 1027.06 | 1.458
293.15 K, m1 = 0.01 | 1000.53 | 1.016
293.15 K, m1 = 0.03 | 1004.71 | 1.055
293.15 K, m1 = 0.05 | 1008.6 | 1.094
293.15 K, m1 = 0.07 | 1012.24 | 1.13
293.15 K, m1 = 0.09 | 1015.8 | 1.169
293.15 K, m1 = 0.11 | 1019.24 | 1.206
293.15 K, m1 = 0.13 | 1022.59 | 1.246
293.15 K, m1 = 0.15 | 1025.89 | 1.285
298.15 K, m1 = 0.01 | 999.36 | 0.9017
298.15 K, m1 = 0.03 | 1003.52 | 0.9359
298.15 K, m1 = 0.05 | 1007.36 | 0.9694
298.15 K, m1 = 0.07 | 1010.99 | 1.002
298.15 K, m1 = 0.09 | 1014.51 | 1.036
298.15 K, m1 = 0.11 | 1017.91 | 1.069
298.15 K, m1 = 0.13 | 1021.27 | 1.104
298.15 K, m1 = 0.15 | 1024.52 | 1.14
303.15 K, m1 = 0.01 | 997.94 | 0.8062
303.15 K, m1 = 0.03 | 1002.05 | 0.8369
303.15 K, m1 = 0.05 | 1005.88 | 0.8669
303.15 K, m1 = 0.07 | 1009.48 | 0.8964
303.15 K, m1 = 0.09 | 1012.96 | 0.9263
303.15 K, m1 = 0.11 | 1016.34 | 0.9559
303.15 K, m1 = 0.13 | 1019.64 | 0.9862
303.15 K, m1 = 0.15 | 1022.89 | 1.019
308.15 K, m1 = 0.01 | 996.31 | 0.7252
308.15 K, m1 = 0.03 | 1000.43 | 0.7532
308.15 K, m1 = 0.05 | 1004.18 | 0.7799
308.15 K, m1 = 0.07 | 1007.75 | 0.8066
308.15 K, m1 = 0.09 | 1011.2 | 0.8336
308.15 K, m1 = 0.11 | 1014.55 | 0.8594
308.15 K, m1 = 0.13 | 1017.85 | 0.8867
308.15 K, m1 = 0.15 | 1021.04 | 0.9172
313.15 K, m1 = 0.01 | 994.47 | 0.6576
313.15 K, m1 = 0.03 | 998.57 | 0.682
313.15 K, m1 = 0.05 | 1002.27 | 0.707
313.15 K, m1 = 0.07 | 1005.83 | 0.7314
313.15 K, m1 = 0.09 | 1009.24 | 0.7559
313.15 K, m1 = 0.11 | 1012.57 | 0.7783
313.15 K, m1 = 0.13 | 1015.83 | 0.8042
313.15 K, m1 = 0.15 | 1018.99 | 0.8303
